Measurements: patent US20110160265A1, “METHOD OF TREATING MOTOR DISORDERS WITH ALPHA-2B ADRENERGIC RECEPTOR AGONISTS” (priority 2007, published 2011)

Assays:
mice [1] = assay: Amphetamine-induced hyperlocomotion (open field); format: in vivo; conditions: drug 2 amphetamine SC
Description: Table 2, below, indicates the locomotor responses of mice treated with various combinations of alpha-2B receptor agonists and the psychostimulant amphetamine. Drug 1 was administered 30 minutes after the animal was placed in the open field. Drug 2 was administered subcutaneously (SC) at 45 minutes after the animal was placed in the open field (15 minutes after drug 1). AUC indicates the total amount of locomotor activity after administration of drug 2. “% decrease activity” indicates the percentage decrease in total activity relative to the Vehicle+Amphetamine group. ° indicates significant difference (P<0.05) relative to Vehicle+Amphetamine treated animals. * indicates significant difference (P<0.05) relative to Vehicle+Vehicle treated animals.
(§1) Amphetamine- or cocaine-induced hyperactivity. Mice were placed in an open field apparatus (FlexField, San Diego Instruments, San Diego, Calif.). After 30 minutes of habituation, they received a vehicle or haloperidol injection or injection of alpha-2B receptor agonist followed by an injection of amphetamine (2 mg/kg, s.c.) or cocaine (10 mg/kg, i.p.) at minute 45. Their activity levels were subsequently measured for another 1 hour post-injection. Total activity over each 5 minute bin (21 total bins) was added to establish activity curve over the 105 minute testing.
(§2) For i.p. administration, the compounds are formulated in H2O with 0.5% DMSO and given in a volume of 1 ml/kg body weight by injecting into the intraperitoneal cavity. For p.o. administration, the compounds are formulated in H2O with 0.5% DMSO and given in a volume of 2 ml/kg body weight using a 25-gauge, 1.5 inch gavage needle that is slowly inserted through the esophagus into the stomach.

mice [2] = assay: Cocaine-induced hyperlocomotion (open field); format: in vivo; conditions: drug 2 cocaine SC; for % DECREASE ACTIVITY: relative to Vehicle+Cocaine
Description: Table 3, below, indicates the locomotor responses of mice treated with various combinations of alpha-2B receptor agonists and the psychostimulant cocaine. Drug 1 was administered 30 minutes after the animal was placed in the open field. Drug 2 was administered subcutaneously (SC) at 45 minutes after the animal was placed in the open field (15 minutes after drug 1). AUC indicates the total amount of locomotor activity after administration of drug 2. “% decrease activity” indicates the percentage decrease in total activity relative to the Vehicle+Cocaine group. ° indicates significant difference (P<0.05) relative to Vehicle+Cocaine treated animals. * indicates significant difference (P<0.05) relative to Vehicle+Vehicle treated animals.
as §1, §2

O=C1c2ccccc2CC[C@H]1Cc1c[nH]c(=S)[nH]1 [Compound E]
% DECREASE ACTIVITY REL TO VEH + AMPH (mice [1]; drug 1 0.01 mg/kg PO): 15% *
TOTAL ACTIVITY POST-AMPHETAMINE (AUC) (mice [1]; drug 1 0.01 mg/kg PO): 11419.2 ± 550.4
% DECREASE ACTIVITY REL TO VEH + AMPH (mice [1]; drug 1 0.03 mg/kg PO): 58% ^⋄
TOTAL ACTIVITY POST-AMPHETAMINE (AUC) (mice [1]; drug 1 0.03 mg/kg PO): 5616.8 ± 618.2
% DECREASE ACTIVITY REL TO VEH + AMPH (mice [1]; drug 1 0.1 mg/kg PO): 66% ^⋄
TOTAL ACTIVITY POST-AMPHETAMINE (AUC) (mice [1]; drug 1 0.1 mg/kg PO): 4623.8 ± 1166.7
% DECREASE ACTIVITY REL TO VEH + AMPH (mice [1]; drug 1 1 mg/kg PO): 49% ^⋄ *
TOTAL ACTIVITY POST-AMPHETAMINE (AUC) (mice [1]; drug 1 1 mg/kg PO): 6867.3 ± 979.3
% DECREASE ACTIVITY REL TO VEH + AMPH (mice [1]; drug 1 10 mg/kg PO): 55% ^⋄
TOTAL ACTIVITY POST-AMPHETAMINE (AUC) (mice [1]; drug 1 10 mg/kg PO): 6026.0 ± 1007.9
TOTAL ACTIVITY POST-COCAINE (AUC) (mice [2]; drug 1 0.01 mg/kg PO): 5036.5 ± 464.2
TOTAL ACTIVITY POST-COCAINE (AUC) (mice [2]; drug 1 0.03 mg/kg PO): 5033.5 ± 503.8
TOTAL ACTIVITY POST-COCAINE (AUC) (mice [2]; drug 1 0.1 mg/kg PO): 6263.0 ± 436.6
TOTAL ACTIVITY POST-COCAINE (AUC) (mice [2]; drug 1 0.3 mg/kg PO): 3662.1 ± 1458.2
% DECREASE ACTIVITY (mice [2]; drug 1 0.01 mg/kg PO): 52% ^⋄ *
% DECREASE ACTIVITY (mice [2]; drug 1 0.03 mg/kg PO): 52% ^⋄ *
% DECREASE ACTIVITY (mice [2]; drug 1 0.1 mg/kg PO): 40% ^⋄ *
% DECREASE ACTIVITY (mice [2]; drug 1 0.3 mg/kg PO): 65% ^⋄
